Experimental data as given in PubChem BioAssay AID1963839 (Molecular Pharmacology Branch, DTP, NCI, 2024).
Values joined by “and” are separate entries in the source; they are usually repeats but may differ in a detail not shown here. Equal entries are not always repeated.

Tested on: 817829-284-R-J1-PDC complex spheroid viability
Experiment: Anticancer human tumor 817829-284-R-J1-PDC patient-derived colon adenocarcinoma cell line growth inhibition [POLQ]
Conditions: for viability, T/C: stronger effect = lower value; active = viability on the fitted dose curve at most 10% of control; inactive = the rest
Experimental: Multicellular complex tumor spheroid response to Polymerase (POL) inhibitors (novobiocin, ART-558, RP6685) in combination with a variety of drugs and investigational agents in selected tumor cell lines
The POL inhibitors (novobiocin, ART-558, and RP6685) were evaluated both individually and in combination with standard of care and investigational anticancer small molecules within a complex spheroid model of solid tumors. . Complex spheroids include a stromal component modeled by human endothelial cells (HUVEC) and fibroblasts modeled by human mesenchymal stem cells (MSCs). The concentration ranges selected for each drug and investigational agent were based upon clinically achievable concentrations if the clinical Cmax of the agent was known.
Compounds. The drugs and investigational agents: novobiocin (NSC847541), ART-558 (NSC835418), RP-6685 (NSC848927), peposertib (NSC802822), ceralasertib (NSC780249), elimusertib (NSC800525), camonsertib (NSC841442), AZD-1390 (NSC803789), olaparib (NSC753686), talazoparib (NSC767125), rucaparib (NSC756644), sotorasib (NSC818433), MRTX-1133 (NSC836407), SN-38 (NSC673596), topotecan (NSC609699), epotoside (NSC141540), doxorubicin (NSC123127), gemcitabine (NSC613327), 5-fluorouracil (NSC19893), paclitaxel (NSC125973), vemurafenib (NSC761431), MSA-2 (NSC828583), SN-011 (NSC837082), adavosertib (NSC754352), prexasertib (NSC758257), carboplatin (NSC241240) and oxaliplatin (NSC266046), were obtained from the National Cancer Institute (NCI) Developmental Therapeutics Program Chemical Repository (21). The FDA-approved anticancer drug set is available from the Developmental Therapeutics Program at https://dtp.cancer.gov/organization/dscb/obtaining/. […] The stock solutions were prepared in dimethyl sulfoxide (DMSO, Sigma-Aldrich, St. Louis, MO, cat. D2650), except for the platinum compounds which were prepared in saline (Quality Biological, Gaithersburg, MD, cat. 114-055-101), at 800-fold the tested concentration and stored at -70 degrees C prior to their use. All drugs and investigational agents were tested over a range starting from a high concentration at or near the clinical Cmax and decreasing in half-log increments. If the clinical Cmax for an agent had not been determined, the highest concentration tested was 10 microM, except for SN-38, which was tested at a high concentration of 1 microM.
Cell Culture. All cells were maintained in an incubator at 37 degrees C and 5% CO2 with 95% humidity. The PDC lines were cultured according to standard operating procedures established by the NCI PDMR (https://pdmr.cancer.gov). Table 3 of the manuscript, lists the cell lines along with the number of the three cell types plated to form the mct-spheroids and media for tumor cell growth. After thawing, all PDC lines, except 997537-175-T-J1-PDC and 415267-285-R-J2-PDC, were cultured in Matrigel-coated flasks prepared with a working solution of 1X Ham's F-12 nutrient mix, without supplementation (Thermo Fisher Scientific, cat. 11765054), 100 U/mL penicillin-streptomycin (Thermo Fisher Scientific, cat. 15140122), and 2.5% Matrigel (Corning Inc., Corning, NY, cat. 354248) for the first three passages. The two PDC lines 997537-175-T-J1-PDC and 415267-285-R-J2-PDC were cultured on uncoated flasks. The 857933-349-R-J2-PDC line was cultured in 6C/Colon 1B media containing advanced DMEM/F-12 (Thermo Fisher Scientific, cat. 12634028), 10 mM HEPES (Thermo Fisher Scientific, cat. 15630080), 1X GlutaMAX supplement (Thermo Fisher Scientific, cat. 35050061), 0.1 mg/mL primocin (InvivoGen, San Diego, CA, cat. ant-pm-2), 10% defined fetal bovine serum, heat inactivated (HyClone Laboratories Inc., Logan, UT, cat. SH30070.03HI), 50% L-WRN conditioned media (ATCC, cat. CRL-3276), 1.25 mM N-Acetyl-L-cysteine (Sigma-Aldrich, cat. A9165), 10 mM nicotinamide (Sigma-Aldrich, cat. N0636), 1X B-27 supplement (Thermo Fisher Scientific, cat. 17504044), 1X N-2 supplement (Thermo Fisher Scientific, cat. […]

[1] = curve of first compound, second compound 0.0316 µM
[2] = curve of first compound, second compound 0.1 µM
[3] = curve of first compound, second compound 0.316 µM
[4] = curve of first compound, second compound 1 µM
[5] = curve of first compound, second compound 3.16 µM
[6] = curve of first compound, second compound 10 µM
[7] = second compound 0.0316 µM, first compound 0.0316 µM
[8] = second compound 0.0316 µM, first compound 0.1 µM
[9] = second compound 0.0316 µM, first compound 0.316 µM
[10] = second compound 0.0316 µM, first compound 1 µM
[11] = second compound 0.0316 µM, first compound 3.16 µM
[12] = second compound 0.0316 µM, first compound 10 µM
[13] = second compound 0.1 µM, first compound 0.0316 µM
[14] = second compound 0.1 µM, first compound 0.1 µM
[15] = second compound 0.1 µM, first compound 0.316 µM
[16] = second compound 0.1 µM, first compound 1 µM
[17] = second compound 0.1 µM, first compound 3.16 µM
[18] = second compound 0.1 µM, first compound 10 µM
[19] = second compound 0.316 µM, first compound 0.0316 µM
[20] = second compound 0.316 µM, first compound 0.1 µM
[21] = second compound 0.316 µM, first compound 0.316 µM
[22] = second compound 0.316 µM, first compound 1 µM
[23] = second compound 0.316 µM, first compound 3.16 µM
[24] = second compound 0.316 µM, first compound 10 µM
[25] = second compound 1 µM, first compound 0.0316 µM
[26] = second compound 1 µM, first compound 0.1 µM
[27] = second compound 1 µM, first compound 0.316 µM
[28] = second compound 1 µM, first compound 1 µM
[29] = second compound 1 µM, first compound 3.16 µM
[30] = second compound 1 µM, first compound 10 µM
[31] = second compound 3.16 µM, first compound 0.0316 µM
[32] = second compound 3.16 µM, first compound 0.1 µM
[33] = second compound 3.16 µM, first compound 0.316 µM
[34] = second compound 3.16 µM, first compound 1 µM
[35] = second compound 3.16 µM, first compound 3.16 µM
[36] = second compound 3.16 µM, first compound 10 µM
[37] = second compound 10 µM, first compound 0.0316 µM
[38] = second compound 10 µM, first compound 0.1 µM
[39] = second compound 10 µM, first compound 0.316 µM
[40] = second compound 10 µM, first compound 1 µM
[41] = second compound 10 µM, first compound 3.16 µM
[42] = second compound 10 µM, first compound 10 µM
[43] = compound alone, run of 11/27/2023
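Also: spheroids exposed to compounds for 7 days.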
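For viability, T/C in this document: 100% = DMSO vehicle-treated spheroids.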

CC1COCCN1c1cc(-c2ccnn2C)c2ccnc(-c3ccn[nH]3)c2n1 (configuration not stated) + Nc1ccc(C#CCN(C(=O)Cc2ncc(C(F)(F)F)cc2C(F)(F)F)c2ccc(F)cc2)nn1
41.4 nM: IC50 [3]
51.2 nM: IC50 [6]
active: viability, T/C [9] 5.55% | viability, T/C [10] 3.95% | viability, T/C [11] 3.46% | viability, T/C [12] 3.51% | viability, T/C [15] 5.6% | viability, T/C [16] 3.72% | viability, T/C [17] 3.57% | viability, T/C [18] 2.68% | viability, T/C [21] 5.61% | viability, T/C [22] 3.98% | viability, T/C [23] 3.56% | viability, T/C [24] 2.61% | viability, T/C [27] 6.24% | viability, T/C [28] 4.01% | viability, T/C [29] 3.75% | viability, T/C [30] 3.12% | viability, T/C [33] 5.89% | viability, T/C [34] 4.04% | viability, T/C [35] 3% | viability, T/C [36] 3.74% | viability, T/C [39] 5.59% | viability, T/C [40] 3.74% | viability, T/C [41] 3.56% | viability, T/C [42] 2.98%
48.6 nM: IC50 [4]
53.6 nM: IC50 [5]
47.9 nM: IC50 [2]
inactive: viability, T/C [7] 66.6% | viability, T/C [8] 15.1% | viability, T/C [13] 69.3% | viability, T/C [14] 16.2% | viability, T/C [19] 60.5% | viability, T/C [20] 16.4% | viability, T/C [25] 70.6% | viability, T/C [26] 15.2% | viability, T/C [31] 72.8% | viability, T/C [32] 23.1% | viability, T/C [37] 73.9% | viability, T/C [38] 16.9%
45.7 nM: IC50 [1]

CCc1cc2c(N3CCc4c(cc(Cn5ccnc5)cc4-c4cn(C)nc4C(F)(F)F)C3=O)cc(C)nc2c(OC)n1
2800 nM and 1740 nM and 2830 nM: IC50 (curve of compound)
inactive: viability, T/C (compound 0.0316 µM) 88.4% and 75.3% and 76.3% | viability, T/C (compound 0.1 µM) 85.8% and 83.5% and 79.4% | viability, T/C (compound 0.316 µM) 75.3% and 63.8% and 69.3% | viability, T/C (compound 1 µM) 80.6% and 56.1% and 65.8% | viability, T/C (compound 3.16 µM) 46.4% and 44.7% and 47.9% | viability, T/C (compound 10 µM) 33.1% and 29.7% and 30.8%

COC1C(OC(N)=O)C(O)C(Oc2ccc3c(O)c(NC(=O)c4ccc(O)c(CC=C(C)C)c4)c(=O)oc3c2C)OC1(C)C (configuration not stated)
> 10000 nM: IC50 [43]

CC1COCCN1c1cc(C2(S(C)(=N)=O)CC2)nc(-c2ccnc3[nH]ccc23)n1 (configuration not stated)
8.76% and 7.96% and 7.97%: viability, T/C (compound 3.16 µM)
545 nM and 274 nM and 472 nM: IC50 (curve of compound)
active: viability, T/C (compound 10 µM) 4.29% and 4.9% and 3.97%
inactive: viability, T/C (compound 0.0316 µM) 110% and 98% and 105% | viability, T/C (compound 0.1 µM) 96.4% and 67.8% and 94.3% | viability, T/C (compound 0.316 µM) 65% and 52.9% and 63.1% | viability, T/C (compound 1 µM) 33.9% and 23.4% and 25.4%

Cc1cccc(N(C)C(=O)C2C(O)CCN2c2nc(C)cc(C(F)(F)F)c2C#N)c1 (configuration not stated)
> 10000 nM: IC50 [43] | IC50 (compound alone, run of 12/05/2023)
inactive: viability, T/C (compound 10 µM) 99.5% [middle of 13 runs]

O=C(Nc1ccc(O)c(NS(=O)(=O)c2ccc(F)cc2)c1)c1ccc(-c2ccccc2)cc1 + Nc1ccc(C#CCN(C(=O)Cc2ncc(C(F)(F)F)cc2C(F)(F)F)c2ccc(F)cc2)nn1
6800 nM: IC50 [3]
inactive: viability, T/C [7] 109% | viability, T/C [8] 94.8% | viability, T/C [9] 107% | viability, T/C [10] 101% | viability, T/C [11] 70.2% | viability, T/C [12] 38.1% | viability, T/C [13] 103% | viability, T/C [14] 110% | viability, T/C [15] 90.6% | viability, T/C [16] 102% | viability, T/C [17] 74.7% | viability, T/C [18] 39.7% | viability, T/C [19] 113% | viability, T/C [20] 105% | viability, T/C [21] 105% | viability, T/C [22] 107% | viability, T/C [23] 76.9% | viability, T/C [24] 36.5% | viability, T/C [25] 113% | viability, T/C [26] 102% | viability, T/C [27] 100% | viability, T/C [28] 98.2% | viability, T/C [29] 86.6% | viability, T/C [30] 39.5% | viability, T/C [31] 100% | viability, T/C [32] 98.5% | viability, T/C [33] 119% | viability, T/C [34] 96.2% | viability, T/C [35] 88% | viability, T/C [36] 34.1% | viability, T/C [37] 103% | viability, T/C [38] 88.9% | viability, T/C [39] 113% | viability, T/C [40] 97.2% | viability, T/C [41] 85.3% | viability, T/C [42] 33.8%
6530 nM: IC50 [1]
7080 nM: IC50 [5]
7120 nM: IC50 [2]
6950 nM: IC50 [6]
7730 nM: IC50 [4]
